In patent publication US4818770A, “Prevention of a plant disease by specific inhibition of fungal polyamine biosynthesis” (priority 1986, dated 1989):
Read-outs that look alike come from different tables or passages of the source.

Key:
arginase = molecular target: T1, arginase (Verticillium dahliae, UniProt G2WV09); assay: Arginase activity in mycelium extracts with DFMA as substrate; assay type: biochemical; details: mycelium of 12-day old cultures
T1 construct: urea release from arginine or DFMA
T1 sequence (G2WV09 1-327): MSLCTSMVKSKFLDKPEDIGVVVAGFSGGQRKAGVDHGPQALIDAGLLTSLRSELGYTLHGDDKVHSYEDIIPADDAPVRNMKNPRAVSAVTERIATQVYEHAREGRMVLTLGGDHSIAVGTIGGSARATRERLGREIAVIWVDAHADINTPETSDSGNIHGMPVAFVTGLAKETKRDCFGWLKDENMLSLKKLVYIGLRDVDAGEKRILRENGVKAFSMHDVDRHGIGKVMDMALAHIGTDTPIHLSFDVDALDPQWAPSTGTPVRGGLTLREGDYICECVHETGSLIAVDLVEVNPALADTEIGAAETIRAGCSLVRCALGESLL
Method: Ornithine decarboxylase and ADCase activity determinations were carried out on 12-day-old mycelium of the fungus cultured on liquid Czapek-Dox medium containing 1% glucose as the carbon source.
Ornithine decarboxylase and ADCase were assayed by the methods of Kaur-Sawhney et al. (4) using D,L-[1-14 C]ornithine and L-[U14 C]arginine as substrates for the respective enzymes. Arginase activity was determined by the methods of Schimke (9), using arginine and DFMA as substrates, and 1-phenyl-1,2-propanedione-2-oxime to detect the urea release by the enzyme. Controls for the arginase determinations were boiled mycelial extracts, and results were adjusted to compensate for readings obtained from substrate blanks. Protein determinations were by the […] method (1), using bovine serum albumin as a reference standard. Difluoromethylornithine and DFMA are products of Merrell-Dow, and are available from them. All other reagents were from Sigma Biochemicals. All experiments were replicated 3 times and repeated twice. Variaions within experiments were generally less than 5%.

[1] = tested on: P. graminis f. sp. tritici; assay type: in vivo, Puccinia graminis f. sp. tritici
[2] = tested on: Botrytis sp., B. cinerea, Rhizoctonia solani, Monilinia fructicola; details: cited from earlier work

With N=C(N)NCCC[C@](N)(C(=O)O)C(F)F [DFMA, alpha-difluoromethylarginine] the “arginase activity with DFMA as substrate” value (arginase; isolate TS-1B) was 7.1 pM urea/hr/mg protein, the “arginase activity with DFMA as substrate” value (arginase; isolate TS-2B) was 11.3 pM urea/hr/mg protein and the “control of wheat stem rust” value ([1]; 0.01 to 1.0 mM) was “relatively ineffective”. The “% control” value ([1]; post-inoculation, 0.01 mM) was 27%, the Uredia/plant ([1]; post-inoculation, 0.01 mM) was 154 Uredia/plant and the “% control” value ([1]; post-inoculation, 0.025 mM) was 36%. The Uredia/plant ([1]; post-inoculation, 0.025 mM) was 134 Uredia/plant, the “% control” value ([1]; post-inoculation, 0.065 mM) was 29% and the Uredia/plant ([1]; post-inoculation, 0.065 mM) was 150 Uredia/plant. For the same compound, the “% control” value ([1]; post-inoculation, 0.10 mM) was 28%, the Uredia/plant ([1]; post-inoculation, 0.10 mM) was 152 Uredia/plant and the “% control” value ([1]; post-inoculation, 0.13 mM) was 42%. The Uredia/plant ([1]; post-inoculation, 0.13 mM) was 122 Uredia/plant, the “% control” value ([1]; post-inoculation, 0.16 mM) was 42% and the Uredia/plant ([1]; post-inoculation, 0.16 mM) was 122 Uredia/plant. The “% control” value ([1]; post-inoculation, 0.20 mM) was 41%, the Uredia/plant ([1]; post-inoculation, 0.20 mM) was 124 Uredia/plant and the “% control” value ([1]; post-inoculation, 1.00 mM) was 40%. For the same compound, the Uredia/plant ([1]; post-inoculation, 1.00 mM) was 126 Uredia/plant, the “% control” value ([1]; pre-inoculation, 0.01 mM) was 9% and the Uredia/plant ([1]; pre-inoculation, 0.01 mM) was 192 Uredia/plant. For the same compound, the “% control” value ([1]; pre-inoculation, 0.025 mM) was 20%, the Uredia/plant ([1]; pre-inoculation, 0.025 mM) was 167 Uredia/plant and the “% control” value ([1]; pre-inoculation, 0.065 mM) was 20%. The Uredia/plant ([1]; pre-inoculation, 0.065 mM) was 168 Uredia/plant, the “% control” value ([1]; pre-inoculation, 0.10 mM) was 21% and the Uredia/plant ([1]; pre-inoculation, 0.10 mM) was 165 Uredia/plant. The “% control” value ([1]; pre-inoculation, 0.13 mM) was 8%, the Uredia/plant ([1]; pre-inoculation, 0.13 mM) was 193 Uredia/plant and the “% control” value ([1]; pre-inoculation, 0.16 mM) was 11%. For the same compound, the Uredia/plant ([1]; pre-inoculation, 0.16 mM) was 186 Uredia/plant, the “% control” value ([1]; pre-inoculation, 0.20 mM) was 18% and the Uredia/plant ([1]; pre-inoculation, 0.20 mM) was 172 Uredia/plant. For the same compound, the “% control” value ([1]; pre-inoculation, 1.00 mM) was 30%, the Uredia/plant ([1]; pre-inoculation, 1.00 mM) was 148 Uredia/plant and the “mycelial growth in vitro” value ([2]; Botrytis sp., B. cinerea, Rhizoctonia solani, Monilinia fructicola) was “inhibited mycelial growth”. For the same compound, the “relative inhibition of fungal growth in vitro” value ([2]; Plant Cell Physiol. (1985), vol. 26, 683-692) was “more effective inhibitor of fungal growth than was DFMO”.
